# Results reported in PubChem BioAssay (NCI).
#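 Five concentrations, 48 hours, 96-well plates. The concentration for 50% growth inhibition is given as GI50. TGI: total growth inhibition.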
# How the values were obtained:
# Test in all cases: NCI-60 cell line screen, 48 h
# [1] = tested on: 786-0 renal
# [2] = tested on: A498 renal
# [3] = tested on: A549 NSCLC
# [4] = tested on: ACHN renal
# [5] = tested on: BT-549 breast
# [6] = tested on: CAKI-1 renal
# [7] = tested on: CCRF-CEM leukemia
# [8] = tested on: COLO 205 colon
# [9] = tested on: DU-145 prostate
# [10] = tested on: EKVX NSCLC
# [11] = tested on: HCC-2998 colon
# [12] = tested on: HCT-116 colon
# [13] = tested on: HCT-15 colon
# [14] = tested on: HL-60(TB) leukemia
# [15] = tested on: HOP-62 NSCLC
# [16] = tested on: HOP-92 NSCLC
# [17] = tested on: HS 578T breast
# [18] = tested on: HT29 colon
# [19] = tested on: IGROV1 ovarian
# [20] = tested on: K-562 leukemia
# [21] = tested on: KM12 colon
# [22] = tested on: LOX IMVI melanoma
# [23] = tested on: MALME-3M melanoma
# [24] = tested on: MCF7 breast
# [25] = tested on: MDA-MB-231 breast
# [26] = tested on: MDA-MB-435
# [27] = tested on: MDA-N
# [28] = tested on: MOLT-4 leukemia
# [29] = tested on: NCI-H226 lung
# [30] = tested on: NCI-H23 lung
# [31] = tested on: NCI-H460 lung
# [32] = tested on: NCI-H522 lung
# [33] = tested on: NCI/ADR-RES ovarian
# [34] = tested on: OVCAR-3 ovarian
# [35] = tested on: OVCAR-4 ovarian
# [36] = tested on: OVCAR-5 ovarian
# [37] = tested on: OVCAR-8 ovarian
# [38] = tested on: PC-3 prostate
# [39] = tested on: RPMI-8226 leukemia
# [40] = tested on: RXF 393 renal
# [41] = tested on: SF-268 CNS
# [42] = tested on: SF-295 CNS
# [43] = tested on: SF-539 CNS
# [44] = tested on: SK-MEL-28 melanoma
# [45] = tested on: SK-MEL-5 melanoma
# [46] = tested on: SN12C renal
# [47] = tested on: SNB-19 CNS
# [48] = tested on: SR leukemia
# [49] = tested on: SW-620 colon
# [50] = tested on: TK-10 renal
# [51] = tested on: U251 CNS
# [52] = tested on: UACC-257 melanoma
# [53] = tested on: UO-31 renal
# [54] = tested on: M14 melanoma
# [55] = tested on: SK-MEL-2 melanoma
# [56] = tested on: SK-OV-3 ovarian
# [57] = tested on: SNB-75 CNS
# [58] = tested on: T-47D breast
# [59] = tested on: UACC-62 melanoma
structure (smiles),measurement,setting,value
CC(NC(=O)C(N)Cc1ccc(O)cn1)C(=O)O (stereo not drawn),TGI,[1],> 100 µM
same,TGI,[2],> 100 µM
same,TGI,[3],> 100 µM
same,TGI,[4],> 100 µM
same,TGI,[5],> 100 µM
same,TGI,[6],> 100 µM
same,TGI,[7],> 100 µM
same,TGI,[8],> 100 µM
same,TGI,[9],> 100 µM
same,TGI,[10],> 100 µM
same,TGI,[11],> 100 µM
same,TGI,[12],> 100 µM
same,TGI,[13],> 100 µM
same,TGI,[14],> 100 µM
same,TGI,[15],> 100 µM
same,TGI,[16],> 100 µM
same,TGI,[17],> 100 µM
same,TGI,[18],> 100 µM
same,TGI,[19],> 100 µM
same,TGI,[20],> 100 µM
same,TGI,[21],> 100 µM
same,TGI,[22],> 100 µM
same,TGI,[23],> 100 µM
same,TGI,[24],> 100 µM
same,TGI,[25],> 100 µM
same,TGI,[26],> 100 µM
same,TGI,[27],> 100 µM
same,TGI,[28],> 100 µM
same,TGI,[29],> 100 µM
same,TGI,[30],> 100 µM
same,TGI,[31],> 100 µM
same,TGI,[32],> 100 µM
same,TGI,[33],> 100 µM
same,TGI,[34],> 100 µM
same,TGI,[35],> 100 µM
same,TGI,[36],> 100 µM
same,TGI,[37],> 100 µM
same,TGI,[38],> 100 µM
same,TGI,[39],> 100 µM
same,TGI,[40],> 100 µM
same,TGI,[41],> 100 µM
same,TGI,[42],> 100 µM
same,TGI,[43],> 100 µM
same,TGI,[44],> 100 µM
same,TGI,[45],> 100 µM
same,TGI,[46],> 100 µM
same,TGI,[47],> 100 µM
same,TGI,[48],> 100 µM
same,TGI,[49],> 100 µM
same,TGI,[50],> 100 µM
same,TGI,[51],> 100 µM
same,TGI,[52],> 100 µM
same,TGI,[53],> 100 µM
CCCCCCCC/C=C\CCCCCCC(F)C(=O)O (stereo not drawn),TGI,[1],> 12.5 µM
same,TGI,[2],> 12.5 µM
same,TGI,[3],> 12.5 µM
same,TGI,[4],> 12.5 µM
same,TGI,[6],> 12.5 µM
same,TGI,[7],> 12.5 µM
same,TGI,[8],> 12.5 µM
same,TGI,[9],> 12.5 µM
same,TGI,[10],> 12.5 µM
same,TGI,[11],> 12.5 µM
same,TGI,[12],> 12.5 µM
same,TGI,[13],> 12.5 µM
same,TGI,[14],> 12.5 µM
same,TGI,[15],> 12.5 µM
same,TGI,[16],> 12.5 µM
same,TGI,[17],> 12.5 µM
same,TGI,[18],> 12.5 µM
same,TGI,[19],> 12.5 µM
same,TGI,[20],> 12.5 µM
same,TGI,[21],> 12.5 µM
same,TGI,[22],> 12.5 µM
same,TGI,[54],> 12.5 µM
same,TGI,[23],> 12.5 µM
same,TGI,[24],> 12.5 µM
same,TGI,[25],> 12.5 µM
same,TGI,[26],> 12.5 µM
same,TGI,[27],> 12.5 µM
same,TGI,[28],> 12.5 µM
same,TGI,[29],> 12.5 µM
same,TGI,[30],> 12.5 µM
same,TGI,[32],> 12.5 µM
same,TGI,[33],> 12.5 µM
same,TGI,[34],> 12.5 µM
same,TGI,[35],> 12.5 µM
same,TGI,[36],> 12.5 µM
same,TGI,[37],> 12.5 µM
same,TGI,[38],> 12.5 µM
same,TGI,[39],> 12.5 µM
same,TGI,[40],> 12.5 µM
same,TGI,[41],> 12.5 µM
same,TGI,[42],> 12.5 µM
same,TGI,[43],> 12.5 µM
same,TGI,[55],> 12.5 µM
same,TGI,[44],> 12.5 µM
same,TGI,[45],> 12.5 µM
same,TGI,[56],> 12.5 µM
same,TGI,[46],> 12.5 µM
same,TGI,[47],> 12.5 µM
same,TGI,[57],> 12.5 µM
same,TGI,[48],> 12.5 µM
same,TGI,[49],> 12.5 µM
same,TGI,[58],> 12.5 µM
same,TGI,[50],> 12.5 µM
same,TGI,[51],> 12.5 µM
same,TGI,[52],> 12.5 µM
same,TGI,[53],> 12.5 µM
CC1(C)CC(=O)C2=C(C1)NC(SSC1=C(C#N)C(c3ccc(F)cc3)C3=C(CC(C)(C)CC3=O)N1)=C(C#N)C2c1ccc(F)cc1 (stereo not drawn),GI50,[3],15 µg/mL
same,TGI,[3],15 µg/mL
same,GI50,[4],28.7 µg/mL
same,TGI,[4],53.7 µg/mL
same,GI50,[5],30 µg/mL
same,TGI,[5],55.4 µg/mL
same,GI50,[6],29.5 µg/mL
same,TGI,[6],50.7 µg/mL
same,GI50,[7],34.1 µg/mL
same,TGI,[7],136 µg/mL
same,GI50,[8],29.1 µg/mL
same,TGI,[8],55.8 µg/mL
same,GI50,[9],15 µg/mL
same,TGI,[9],15 µg/mL
same,GI50,[10],35.5 µg/mL
same,TGI,[10],78.5 µg/mL
same,GI50,[12],26.5 µg/mL
same,TGI,[12],47.3 µg/mL
same,GI50,[13],30.3 µg/mL
same,TGI,[13],64 µg/mL
same,GI50,[14],47.1 µg/mL
same,TGI,[14],> 150 µg/mL
same,GI50,[15],108 µg/mL
same,TGI,[15],> 150 µg/mL
same,GI50,[17],76.9 µg/mL
same,TGI,[17],> 150 µg/mL
same,GI50,[18],25.1 µg/mL
same,TGI,[18],47.2 µg/mL
same,GI50,[19],15 µg/mL
same,TGI,[19],15 µg/mL
same,GI50,[20],17.1 µg/mL
same,TGI,[20],> 150 µg/mL
same,GI50,[21],52.9 µg/mL
same,TGI,[21],> 150 µg/mL
same,GI50,[22],30.5 µg/mL
same,TGI,[22],63.3 µg/mL
same,GI50,[54],22.6 µg/mL
same,TGI,[54],49.5 µg/mL
same,GI50,[23],31.8 µg/mL
same,TGI,[23],56.6 µg/mL
same,GI50,[24],32.3 µg/mL
same,TGI,[24],72.3 µg/mL
same,GI50,[25],29 µg/mL
same,TGI,[25],51.7 µg/mL
same,GI50,[26],26.2 µg/mL
same,TGI,[26],46.9 µg/mL
same,GI50,[27],27.2 µg/mL
same,TGI,[27],48.4 µg/mL
same,GI50,[28],39.1 µg/mL
same,TGI,[28],118 µg/mL
same,GI50,[30],31.1 µg/mL
same,TGI,[30],68.2 µg/mL
same,GI50,[31],47.8 µg/mL
same,TGI,[31],> 150 µg/mL
same,GI50,[33],40.9 µg/mL
same,TGI,[33],128 µg/mL
same,GI50,[34],25.6 µg/mL
same,TGI,[34],46.1 µg/mL
same,GI50,[35],27.7 µg/mL
same,TGI,[35],52.7 µg/mL
same,GI50,[36],106 µg/mL
same,TGI,[36],> 150 µg/mL
same,GI50,[37],28.8 µg/mL
same,TGI,[37],49.9 µg/mL
same,GI50,[38],27.1 µg/mL
same,TGI,[38],48 µg/mL
same,GI50,[39],50.5 µg/mL
same,TGI,[39],118 µg/mL
same,GI50,[40],21.4 µg/mL
same,TGI,[40],41.1 µg/mL
same,GI50,[41],29.3 µg/mL
same,TGI,[41],58.4 µg/mL
same,GI50,[42],150 µg/mL
same,TGI,[42],> 150 µg/mL
same,GI50,[43],23.4 µg/mL
same,TGI,[43],43.5 µg/mL
same,GI50,[44],25.8 µg/mL
same,TGI,[44],46.4 µg/mL
same,GI50,[45],22.9 µg/mL
same,TGI,[45],44.7 µg/mL
same,GI50,[56],15 µg/mL
same,TGI,[56],15 µg/mL
same,GI50,[46],27.9 µg/mL
same,TGI,[46],52.1 µg/mL
same,GI50,[47],77.1 µg/mL
same,TGI,[47],> 150 µg/mL
same,GI50,[57],41.3 µg/mL
same,TGI,[57],> 150 µg/mL
same,GI50,[48],48.9 µg/mL
same,TGI,[48],> 150 µg/mL
same,GI50,[49],6.93 µg/mL
same,TGI,[49],25 µg/mL
same,GI50,[58],15 µg/mL
same,TGI,[58],15 µg/mL
same,GI50,[50],23.6 µg/mL
same,TGI,[50],46 µg/mL
same,GI50,[51],15 µg/mL
same,TGI,[51],15 µg/mL
same,GI50,[52],30.2 µg/mL
same,TGI,[52],51.6 µg/mL
same,GI50,[59],23.7 µg/mL
same,TGI,[59],43.9 µg/mL
same,GI50,[53],32 µg/mL
same,TGI,[53],74.9 µg/mL
